This test deals with TMD8-resistant cells. Description: CellTiter-Glo luminescent cell viability assay, TMD8-resistant versus TMD8-WT cells. The format is cell-based. As to conditions: ABT-199 for 3 days.

Each structure is given as a SMILES string.

For the compound `CC1(C)CCC(CN2CCN(c3ccc(C(=O)NS(=O)(=O)c4ccc(NCC5CCOCC5)c([N+](=O)[O-])c4)c(Oc4cnc5[nH]ccc5c4)c3)CC2)=C(c2ccc(Cl)cc2)C1` [ABT-199], the “sensitivity to drug (effect on cell growth) compared to TMD8-WT cells” value is reported as “more sensitive”.
